Each block holds one compound with its values, some of them ahead of it. The source made the active and inactive calls.
How the values were obtained:
[1] = molecular target: ADP-ribosylation factor GTPase-activating protein 1 (Rattus norvegicus, UniProt Q62848); assay: Fluorescence polarization-based biochemical high throughput dose response screening assay to identify inhibitors of ADP-ribosylation factor GTPase activating protein 1 (ARFGAP1).; format: functional
[2] = molecular target: T1, Sentrin-specific protease 1 (Homo sapiens, UniProt Q9P0U3); assay: Dose response confirmation of small molecule inhibitors of the catalytic domain of the SUMO protease, SENP1 in a FRET assay.; format: functional; settings: read-out: IC50_Mean
T1 sequence (Q9P0U3 whole entry): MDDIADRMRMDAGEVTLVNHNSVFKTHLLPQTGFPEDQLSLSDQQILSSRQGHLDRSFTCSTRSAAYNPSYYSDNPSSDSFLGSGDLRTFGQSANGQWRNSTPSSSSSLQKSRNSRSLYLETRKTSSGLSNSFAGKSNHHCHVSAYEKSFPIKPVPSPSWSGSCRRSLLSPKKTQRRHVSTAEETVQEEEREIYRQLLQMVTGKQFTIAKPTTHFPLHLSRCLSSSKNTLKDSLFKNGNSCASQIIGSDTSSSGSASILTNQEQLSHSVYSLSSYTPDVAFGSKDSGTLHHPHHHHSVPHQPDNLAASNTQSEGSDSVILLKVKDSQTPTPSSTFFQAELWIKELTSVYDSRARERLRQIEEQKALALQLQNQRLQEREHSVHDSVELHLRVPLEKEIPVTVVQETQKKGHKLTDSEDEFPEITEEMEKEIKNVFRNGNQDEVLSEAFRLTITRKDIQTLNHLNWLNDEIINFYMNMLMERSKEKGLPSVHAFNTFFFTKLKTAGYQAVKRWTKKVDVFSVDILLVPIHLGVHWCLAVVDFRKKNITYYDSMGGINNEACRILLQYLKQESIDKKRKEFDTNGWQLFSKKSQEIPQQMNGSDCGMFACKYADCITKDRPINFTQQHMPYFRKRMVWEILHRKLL

[3] = molecular target: T1, Sentrin-specific protease 1; assay: SENP1 catalytic domain blockers, concentration series – biochemical, kinetic FRET, dose response (AID 651697); format: functional; settings: read-out: IC50_Mean
Interleukin-8 = molecular target: T2, Interleukin-8 (Homo sapiens, UniProt P10145); assay: Dose Response confirmation of uHTS small molecule hits for cystic fibrosis induced NFkb Inhibitors in a PAF-induced IL8 counterscreen.; format: functional; settings: read-out: IC50_Mean
T2 sequence (P10145 whole entry): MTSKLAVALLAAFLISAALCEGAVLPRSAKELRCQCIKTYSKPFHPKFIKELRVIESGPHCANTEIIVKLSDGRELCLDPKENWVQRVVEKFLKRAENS

[4] = molecular target: T3, Corticotropin-releasing factor receptor 2/Corticotropin-releasing factor-binding protein (Homo sapiens, UniProt P24387+Q13324); assay: activators of CRF receptor 2 with binding protein – uHTS hits, confirmation (AID 602473); format: functional; settings: read-out: EC50_Mean
T3 sequence (Q13324 whole entry): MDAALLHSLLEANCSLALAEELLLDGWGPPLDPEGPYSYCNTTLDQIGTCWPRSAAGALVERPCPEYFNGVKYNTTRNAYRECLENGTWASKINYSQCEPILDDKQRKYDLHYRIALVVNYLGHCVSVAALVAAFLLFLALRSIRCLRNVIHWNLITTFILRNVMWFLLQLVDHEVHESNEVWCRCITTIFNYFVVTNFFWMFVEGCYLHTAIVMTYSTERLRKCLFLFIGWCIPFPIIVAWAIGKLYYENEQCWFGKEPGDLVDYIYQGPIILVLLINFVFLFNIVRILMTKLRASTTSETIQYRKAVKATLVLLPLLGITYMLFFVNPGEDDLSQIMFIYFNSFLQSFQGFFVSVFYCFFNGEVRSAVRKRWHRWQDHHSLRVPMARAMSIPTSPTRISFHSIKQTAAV
T3 sequence (P24387 whole entry): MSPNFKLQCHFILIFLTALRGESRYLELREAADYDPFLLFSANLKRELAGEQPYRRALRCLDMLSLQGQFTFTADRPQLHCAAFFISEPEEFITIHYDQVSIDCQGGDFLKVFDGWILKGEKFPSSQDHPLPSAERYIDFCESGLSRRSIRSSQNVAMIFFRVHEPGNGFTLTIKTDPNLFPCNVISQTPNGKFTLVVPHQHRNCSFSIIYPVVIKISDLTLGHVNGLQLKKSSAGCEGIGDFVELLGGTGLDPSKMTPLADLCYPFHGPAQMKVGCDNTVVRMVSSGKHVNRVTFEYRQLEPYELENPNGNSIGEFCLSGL

[5] = molecular target: T3, Corticotropin-releasing factor receptor 2/Corticotropin-releasing factor-binding protein; assay: Dose Response confirmation of uHTS hits for small molecule antagonists of the CRF-binding protein and CRF-R2 receptor complex.; format: functional; settings: read-out: IC50_Mean
[6] = blockers of CRF-binding protein–CRF-R2 complex – cell-based, uHTS hits, 384-well, dose response (AID 651639); format: functional, Homo sapiens; settings: read-out: IC50_Mean

Chain of ADP-ribosylation factor GTPase-activating protein 1 (Q62848 whole entry, the tested form may be a part): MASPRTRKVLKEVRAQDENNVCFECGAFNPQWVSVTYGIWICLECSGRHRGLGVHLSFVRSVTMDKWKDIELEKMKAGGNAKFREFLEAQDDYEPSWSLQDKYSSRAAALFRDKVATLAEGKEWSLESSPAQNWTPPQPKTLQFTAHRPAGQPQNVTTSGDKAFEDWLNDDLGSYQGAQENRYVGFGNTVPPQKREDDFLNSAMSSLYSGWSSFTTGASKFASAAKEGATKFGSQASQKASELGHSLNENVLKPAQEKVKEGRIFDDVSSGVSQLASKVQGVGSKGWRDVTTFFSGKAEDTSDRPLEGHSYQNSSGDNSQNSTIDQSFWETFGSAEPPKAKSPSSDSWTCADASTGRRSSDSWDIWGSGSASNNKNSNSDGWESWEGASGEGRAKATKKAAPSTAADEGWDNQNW

IC50 [1]: 28.3 µM (inactive)
Structure (SMILES): COc1cc(/C=C2\SC(N)=NC2=O)ccc1OCC(=O)Nc1ccc(C)cc1

IC50 [2]: 4.3 µM (active) | IC50 [3]: 6.05 µM (active)
Structure (SMILES): C=CCOCCN1C(=O)C2C(c3ccccc3)C=CC(c3ccccc3)C2C1=O (configuration not stated)

IC50 (Interleukin-8): 29.2 µM (inactive)
Structure (SMILES): COCCNc1nc(Oc2cncc(Cl)c2)c2sccc2n1

EC50 [4]: > 53 µM (inactive) | IC50 [5]: 32.2 µM (active) | IC50 [6]: 2.57 µM (active)
Structure (SMILES): Cc1cccc(CSc2ccc3nnc(-c4cccs4)n3n2)c1

From ChEMBL document CHEMBL1201862, “PubChem BioAssay data set” (2004)
